According to patent publication US11891385B1, “1-cyclopropyl-7-(4-((5-(3,5-dichlorobenzylideneamino)-2-thioxo-1,3,4-thiadiazol-3(2H)-yl)methyl)piperazin-1-yl)-6-fluoro-4-oxo-1,4-dihydroquinoline-3-carboxylic aci d as an anti-inflammatory compound” (KING FAISAL UNIVERSITY, priority 2023, dated 2024):
Where two headings read alike, the source gives them in different places.

Molecular target: Bovine serum albumin (Bos taurus, UniProt P02769)
Test: Bovine Serum Albumin (BSA) assay, in-vitro protein denaturation
Assay type: biochemical
Conditions: for inhibition at 20 µg/mL / inhibition at 40 µg/mL / inhibition at 60 µg/mL / inhibition at 80 µg/mL / inhibition at 100 µg/mL: 72° C. for 10 minutes, turbidity at 660 nm
Protocol: Bovine Serum Albumin Assay (BSA) In vitro-inflammatory activities of the tested samples were determined using a modified method of the BSA assay reported by Williams et al. BSA solution (0.4%, w/v) was prepared in Tris Buffered Saline. The pH was adjusted to 6.4 with glacial acetic acid. Different dilutions of 20, 40, 60, 80, and 100 μg/mL of 1-cyclopropyl-7-(4-((5-(3,5-dichlorobenzylideneamino)-2-thioxo-1,3,4-thiadiazol-3(2H)-yl)methyl)piperazin-1-yl)-6-fluoro-4-oxo-1,4-dihydroquinoline-3-carboxylic acid (IV) and the stock solutions were added to test tubes containing 1 mL of 0.4%, w/v BSA buffer solution. Both negative (solvent) and positive (aspirin) controls were assayed in a similar manner. The solutions were then heated in a water bath at 72° C. for 10 minutes, and cooled for 20 minutes under laboratory conditions. The turbidity of the solutions (level of protein precipitation) was measured at 660 nm in Spectrophotometer (V-770 UV-Visible/NIR Spectrophotometer). The percentage inhibition of precipitation (protein denaturation) was determined relative to the negative control using the following equation: [formula] [formula] Anti-Inflammatory Activity

Sequence of Bovine serum albumin (P02769 25-607): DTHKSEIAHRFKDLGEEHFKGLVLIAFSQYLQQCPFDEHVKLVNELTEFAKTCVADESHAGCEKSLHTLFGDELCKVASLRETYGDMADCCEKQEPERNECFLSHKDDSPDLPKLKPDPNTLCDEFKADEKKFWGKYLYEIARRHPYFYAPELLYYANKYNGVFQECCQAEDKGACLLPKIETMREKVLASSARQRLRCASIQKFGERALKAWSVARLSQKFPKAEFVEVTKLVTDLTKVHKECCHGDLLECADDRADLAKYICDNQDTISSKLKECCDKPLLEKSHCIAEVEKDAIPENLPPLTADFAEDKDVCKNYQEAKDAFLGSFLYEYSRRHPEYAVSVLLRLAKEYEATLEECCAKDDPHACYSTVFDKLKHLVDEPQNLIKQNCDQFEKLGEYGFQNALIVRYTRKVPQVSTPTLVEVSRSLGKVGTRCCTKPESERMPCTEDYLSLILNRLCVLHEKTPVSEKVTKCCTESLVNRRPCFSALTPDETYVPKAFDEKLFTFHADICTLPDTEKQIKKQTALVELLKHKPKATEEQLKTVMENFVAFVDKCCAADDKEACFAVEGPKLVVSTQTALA

SMILES	inhibition at 20 µg/mL (concentration 20 μg/ml, read-out: % Inhibition of protein denaturation (Bovine serum albumin)) [%]	inhibition at 40 µg/mL (concentration 40 μg/ml, read-out: % Inhibition of protein denaturation (Bovine serum albumin)) [%]	inhibition at 60 µg/mL (concentration 60 μg/ml, read-out: % Inhibition of protein denaturation (Bovine serum albumin)) [%]	inhibition at 80 µg/mL (concentration 80 μg/ml, read-out: % Inhibition of protein denaturation (Bovine serum albumin)) [%]	inhibition at 100 µg/mL (concentration 100 μg/ml, read-out: % Inhibition of protein denaturation (Bovine serum albumin)) [%]	in vitro anti-inflammatory activity (result in words) (BSA protein denaturation)	% Inhibition of protein denaturation (Bovine serum albumin) (bovine, 10 min, 100 μg/mL, pH 6.4) [%]	inhibition at 20 µg/mL (read-out: % Inhibition of protein denaturation (Bovine serum albumin), concentration 20 μg/ml) [%]	inhibition at 40 µg/mL (read-out: % Inhibition of protein denaturation (Bovine serum albumin), concentration 40 μg/ml) [%]	inhibition at 60 µg/mL (read-out: % Inhibition of protein denaturation (Bovine serum albumin), concentration 60 μg/ml) [%]	inhibition at 80 µg/mL (read-out: % Inhibition of protein denaturation (Bovine serum albumin), concentration 80 μg/ml) [%]	inhibition at 100 µg/mL (read-out: % Inhibition of protein denaturation (Bovine serum albumin), concentration 100 μg/ml) [%]
CC(=O)Oc1ccccc1C(=O)O [aspirin, reference compound]	71	77.5	82.6	85.5	90.8	–	–	–	–	–	–	–
O=C(O)c1cn(C2CC2)c2cc(N3CCN(Cn4nc(/N=C/c5cc(Cl)cc(Cl)c5)sc4=S)CC3)c(F)cc2c1=O [IV, 1-cyclopropyl-7-(4-((5-(3,5-dichlorobenzylideneamino)-2-thioxo-1,3,4-thiadiazol-3(2H)-yl)methyl)piperazin-1-yl)-6-fluoro-4-oxo-1,4-dihydroquinoline-3-carboxylic acid]	–	–	–	–	–	considerable anti-inflammatory effect	83.77	58	68.7	73.2	80	87.6
